Data as given in patent US20230416329A1, “A PEPTIDE WITH DISULFIDE BONDS AND INHIBITORY ACTIVITY AGAINST SERINE PROTEASES, DERIVED HYBRID PEPTIDES THEREOF, AND USES THEREOF” (INSTITUTE OF MATERIA MEDICA , CHINESE ACADEMY OF MEDICAL …, priority 2020, published 2023).
Each block holds one molecule with its values, some of them ahead of it. Bridge positions count the residues as written; N and C are the ends. Peptide text beside a SMILES is read from it.

Target: porcine pancreatic elastase (Sus scrofa, UniProt P00772)
Sequence (P00772 27-266): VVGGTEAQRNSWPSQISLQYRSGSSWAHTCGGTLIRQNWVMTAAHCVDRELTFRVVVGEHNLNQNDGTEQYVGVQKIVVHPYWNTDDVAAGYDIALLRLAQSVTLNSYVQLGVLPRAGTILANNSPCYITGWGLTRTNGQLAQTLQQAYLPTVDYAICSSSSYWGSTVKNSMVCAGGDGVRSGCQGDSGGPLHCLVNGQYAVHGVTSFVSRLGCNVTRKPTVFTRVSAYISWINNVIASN
Test: Elastase inhibitory activity of peptides (AAApNA hydrolysis; IC50, Ki, residual activity)
Format: biochemical
Details: for IC50 / Residual activity of elastase: elastase 0.5 μM, AAApNA 1 mM
Protocol: The inhibition constants of various synthetic active peptide inhibitors (molecular scaffolds) against seine proteases were measured. The substrates N-succinyl-Ala-Ala-Pro-Phe-p-nitroaniline (AAPFpNA), Nα—Benzoyl-L-arginine-4-nitroaniline hydrochloride (BApNA) and N-succinyl-[…] (AAApNA) are used in competitive binding reaction to determine the inhibitory activities against α-chymotrypsin, bovine trypsin, and porcine pancreatic elastase, respectively. Experiments for α-chymotrypsin and bovine trypsin inhibition were measured in 20 mM CaCl2, 50 mM Tris-HCl buffer (pH 7.8), and that for porcine elastase inhibition was measured in 50 mM Tris-HCl buffer (pH 8.0). The concentration of the peptide was measured using optical density (OD) at 280 nm. The Michaelis constant (Km) of the enzyme hydrolysis substrate is calculated from the initial rate of substrate hydrolysis at 405 nm. The absorbance value of the substrate was measured at 405 nm after complete hydrolysis. All data were processed using nonlinear regression.
• (1) Added a total 198 μL of reaction buffer (20 mM CaCl2, 50 mM Tris-HCl (pH 8.0)) into the 96 well plate, followed by preheating at 37° C. for 15 min. Then added 2 μL of different concentrations of substrates (pNA, dissolved in DMSO), and mixed by centrifugation at 500 rpm for 1 min. Finally, the plate was incubated at 37° C. for 30 min, and the absorbance value at 405 nm was measured. In the 200 μL of reaction system, the final concentrations of pNA were 0, 0.025, 0.05, 0.075, 0.1, 0.125, 0.15, 0.175, and 0.2 mM, respectively. Make three repetitions for each concentration and plot the OD405 m value with pNA concentration to obtain the standard curve. • (2) Added a total 190 μL of reaction buffer (20 mM CaCl2, 50 mM Tris-HCl (pH 8.0)) and 8 μL of 4.375 μM elastase into the 96 well plate, followed by preheating at 37° C. for 5 min. Then added 2 μL of different concentrations of substrates (AAApNA, dissolved in DMSO), and mixed by centrifugation at 500 rpm for 1 min. Finally, the plate was incubated at 37° C. for 30 min, and the absorbance value at 405 nm was measured. In the 200 μL of reaction system, the final concentrations of AAApNA were 0, 0.125, 0.166, 0.2, 0.25, 0.33, 0.6, 0.75, and 1.25 mM, respectively. Make three repetitions for each concentration and plot the OD405 nm value with time to obtain the corresponding curve. Divide the slope of the curve by the slope of the standard curve and the enzyme concentration to obtain the initial velocity V0 (mM/(min*mM protein). Plot the initial velocity V0 with the concentration of substrate AAApNA using Prism software, and the Michaelis constant Km value of elastase hydrolyzing AAApNA was obtained.
• (1) Added a total 190 μL of different concentrations of peptides (ECs) against elastase and reaction buffer (20 mM CaCl2, 50 mM Tris-HCl buffer (pH 8.0)) into the pre-cold 96 well plate, followed by preheating at 37° C. for 5 min and centrifugated at 500 rpm for 1 min and allowed to stand for 4 minutes. Then added 8 μL of 12.5 μM elastase and incubated at 37° C. for 10 min and centrifugated at 500 rpm for 1 min and allowed to stand for 9 minutes. Finally, added 2 μL of 100 mM AAApNA, and mixed by centrifugation at 500 rpm for 1 min. The plate was incubated at 37° C. for 60 min, and the absorbance value at 405 nm was measured. Three repetitions were made, and only reaction buffer and substrate were added in the blank control as the minimum absorption value (Min OD405 nm); Only reaction buffer, enzyme and substrate were added in the negative control as the maximum absorption value (Max OD405 nm). • (2) In the 200 μL of reaction system, the final concentrations of elastase and AAApNA were 0.5 μM and 1 mM, respectively. • (3) Data statistics
Residual activity of enzyme (%)=(1−(Max OD405 nm−Sample OD405 nm)/(Max OD405 nm−Min OD405 nm))*100 […]

Structure (SMILES): CC[C@H](C)[C@@H]1NC(=O)[C@@H]2CCCN2C(=O)[C@@H]2CCCN2C(=O)[C@H]([C@@H](C)CC)NC(=O)[C@H](CO)NC(=O)[C@H](C)NC(=O)[C@H]([C@@H](C)O)NC(=O)[C@H](C)NC(=O)[C@H](CC(C)C)NC(=O)CNC(=O)[C@@H](N)CSSC[C@@H](C(=O)N[C@@H](CCC(N)=O)C(=O)O)NC1=O [EC6] (H-CGLATASIPPICQ-OH; disulfide 1-12; N-terminus and C-terminus assumed)
- IC50: > 50 µM

Structure (SMILES): CC[C@H](C)[C@@H]1NC(=O)[C@@H]2CCCN2C(=O)[C@@H]2CCCN2C(=O)[C@H]([C@@H](C)CC)NC(=O)[C@H](CO)NC(=O)[C@H](C)NC(=O)[C@H]([C@@H](C)O)NC(=O)[C@H](CCC(=O)O)NC(=O)[C@H](CCCNC(=N)N)NC(=O)CNC(=O)[C@@H](N)CSSC[C@@H](C(=O)N[C@@H](CCC(N)=O)C(=O)O)NC1=O [EC8] (H-CGRETASIPPICQ-OH; disulfide 1-12; N-terminus and C-terminus assumed)
- IC50: > 50 µM

Structure (SMILES): CC[C@H](C)[C@@H]1NC(=O)[C@H](CO)NC(=O)[C@H](C)NC(=O)[C@H]([C@@H](C)O)NC(=O)[C@H](CCC(=O)O)NC(=O)[C@H](CCCNC(=N)N)NC(=O)CNC(=O)[C@@H](N)CSSC[C@@H](C(=O)N[C@@H](CCCCN)C(=O)O)NC(=O)[C@H](CCC(N)=O)NC(=O)[C@@H]2CCCN2C(=O)[C@@H]2CCCN2C1=O [EC9] (H-CGRETASIPPQCK-OH; disulfide 1-12; N-terminus and C-terminus assumed)
- IC50: > 50 µM

Structure (SMILES): CC[C@H](C)[C@@H]1NC(=O)[C@H](CO)NC(=O)[C@H](C)NC(=O)[C@H]([C@@H](C)O)NC(=O)[C@H](CCC(=O)O)NC(=O)[C@H](CCCNC(=N)N)NC(=O)CNC(=O)[C@@H](N)CSSC[C@@H](C(=O)O)NC(=O)[C@H](CCCCN)NC(=O)[C@H](CCC(N)=O)NC(=O)[C@@H]2CCCN2C(=O)[C@@H]2CCCN2C1=O [EC10] (H-CGRETASIPPQKC-OH; disulfide 1-13; N-terminus and C-terminus assumed)
- IC50: > 50 µM

Structure (SMILES): CC[C@H](C)[C@@H]1NC(=O)[C@H](CO)NC(=O)[C@H](C)NC(=O)[C@H]([C@@H](C)O)NC(=O)[C@H](CCC(=O)O)NC(=O)[C@H](CCCNC(=N)N)NC(=O)CNC(=O)[C@@H](N)CSSC[C@@H](C(=O)O)NC(=O)CNC(=O)[C@H](CCCCN)NC(=O)[C@H](CCC(N)=O)NC(=O)[C@@H]2CCCN2C(=O)[C@@H]2CCCN2C1=O [EC11] (H-CGRETASIPPQKGC-OH; disulfide 1-14; N-terminus and C-terminus assumed)
- IC50: > 50 µM

Structure (SMILES): CC[C@H](C)[C@@H]1NC(=O)[C@H](CO)NC(=O)[C@H](C)NC(=O)[C@H]([C@@H](C)O)NC(=O)[C@H](C)NC(=O)[C@H](Cc2ccc(O)cc2)NC(=O)CNC(=O)[C@@H](N)CSSC[C@@H](C(=O)N[C@@H](Cc2ccc(O)cc2)C(=O)O)NC(=O)[C@H](CCC(N)=O)NC(=O)[C@@H]2CCCN2C(=O)[C@@H]2CCCN2C1=O [EC15] (H-CGYATASIPPQCY-OH; disulfide 1-12; N-terminus and C-terminus assumed)
- IC50: > 50 µM

Structure (SMILES): CC[C@H](C)[C@@H]1NC(=O)[C@@H]2CCCN2C(=O)[C@@H]2CCCN2C(=O)[C@H]([C@@H](C)CC)NC(=O)[C@H](CO)NC(=O)[C@H](C)NC(=O)[C@H]([C@@H](C)O)NC(=O)[C@H](C)NC(=O)[C@H](CC(C)C)NC(=O)CNC(=O)CNC(=O)[C@@H](N)CSSC[C@@H](C(=O)N[C@@H](CCC(N)=O)C(=O)O)NC1=O [EC16] (H-CGGLATASIPPICQ-OH; disulfide 1-13; N-terminus and C-terminus assumed)
- IC50: > 50 µM

Structure (SMILES): CC[C@H](C)[C@@H]1NC(=O)[C@@H]2CCCN2C(=O)[C@@H]2CCCN2C(=O)[C@H]([C@@H](C)CC)NC(=O)[C@H](CO)NC(=O)[C@H](CC(C)C)NC(=O)[C@H]([C@@H](C)O)NC(=O)[C@H](C)NC(=O)[C@H](CC(C)C)NC(=O)CNC(=O)CNC(=O)[C@@H](N)CSSC[C@@H](C(=O)N[C@@H](CCC(N)=O)C(=O)O)NC1=O [EC17] (H-CGGLATLSIPPICQ-OH; disulfide 1-13)
- IC50: > 50 µM

Now from value to molecule, other results behind:

- inhibitory activity against elastase (in words): weaker inhibitory activity
Structure (SMILES): CC[C@H](C)[C@@H]1NC(=O)[C@@H]2CCCN2C(=O)[C@@H]2CCCN2C(=O)[C@H]([C@@H](C)CC)NC(=O)[C@H](CO)NC(=O)[C@H](CC(C)C)NC(=O)[C@H]([C@@H](C)O)NC(=O)[C@H](C)NC(=O)[C@H](CC(C)C)NC(=O)CNC(=O)[C@@H](N)CSSC[C@@H](C(=O)N[C@@H](CCC(N)=O)C(=O)O)NC1=O [EC7] (H-CGLATLSIPPICQ-OH; disulfide 1-12; N-terminus and C-terminus assumed)

- IC50: 0.4 µM
- Residual activity of elastase (peptide 0.001 μM): 98.8 ± 1.1%
- Residual activity of elastase (peptide 0.01 μM): 97.8 ± 1.0%
- Residual activity of elastase (peptide 0.06 μM): 98.2 ± 2.1%
- Residual activity of elastase (peptide 0.25 μM): 72.2 ± 5.9%
- Residual activity of elastase (peptide 0.3 μM): 59.9 ± 3.2%
- Residual activity of elastase (peptide 0.75 μM): 25.1 ± 3.6%
- Residual activity of elastase (peptide 1 μM): 12.7 ± 1.0%
- Residual activity of elastase (peptide 10 μM): 1.3 ± 0.1%
- Residual activity of elastase (peptide 100 μM): 0.2 ± 0.0%
- Residual activity of elastase (peptide 1000 μM): 0.3 ± 0.0%
- Ki (read-out: Ki against elastase): 0.11 µM
Structure (SMILES): CC[C@H](C)[C@@H]1NC(=O)[C@@H]2CCCN2C(=O)[C@@H]2CCCN2C(=O)[C@H]([C@@H](C)CC)NC(=O)[C@H](CO)NC(=O)[C@H](C)NC(=O)[C@H]([C@@H](C)O)NC(=O)[C@@H](NC(=O)[C@@H](N)CC(C)C)CSSC[C@@H](C(=O)N[C@@H](CCC(N)=O)C(=O)O)NC1=O [EC12] (H-LCTASIPPICQ-OH; disulfide 2-10; N-terminus and C-terminus assumed)
- inhibitory activity against elastase (in words): better inhibitory activity against Elastase

- IC50: > 50 µM
Structure (SMILES): CC[C@H](C)[C@H](N)C(=O)N[C@H]1CSSC[C@@H](C(=O)N[C@H](C(=O)O)C(C)C)NC(=O)[C@H](CCC(N)=O)NC(=O)[C@H](C)NC(=O)[C@@H]2CCCN2C(=O)[C@H]([C@@H](C)CC)NC(=O)[C@H](CO)NC(=O)[C@H](CC(C)C)NC(=O)[C@H]([C@@H](C)O)NC1=O [EC13] (H-ICTLSIPAQCV-OH; disulfide 2-10; N-terminus and C-terminus assumed)

- Residual activity of elastase (peptide 0.001 μM): 99.2 ± 2.0%
- Residual activity of elastase (peptide 0.01 μM): 100.6 ± 1.5%
- Residual activity of elastase (peptide 0.1 μM): 97.0 ± 4.0%
- Residual activity of elastase (peptide 0.2 μM): 100.2 ± 2.0%
- Residual activity of elastase (peptide 0.4 μM): 90.3 ± 0.5%
- Residual activity of elastase (peptide 0.6 μM): 73.5 ± 4.8%
- Residual activity of elastase (peptide 1 μM): 49.4 ± 3.3%
- Residual activity of elastase (peptide 6 μM): 8.4 ± 0.4%
- Residual activity of elastase (peptide 10 μM): 3.6 ± 0.5%
- Residual activity of elastase (peptide 100 μM): 0.1 ± 0.0%
Structure (SMILES): CC[C@H](C)[C@@H]1NC(=O)[C@H](CO)NC(=O)[C@H](C)NC(=O)[C@H]([C@@H](C)O)NC(=O)[C@@H](NC(=O)[C@@H](N)CC(C)C)CSSC[C@@H](C(=O)N[C@@H](CCC(N)=O)C(=O)O)NC(=O)[C@H](CCC(N)=O)NC(=O)[C@@H]2CCCN2C(=O)[C@@H]2CCCN2C1=O [EC18] (H-LCTASIPPQCQ-OH; disulfide 2-10; N-terminus and C-terminus assumed)
